Measurements: patent US11524968B2, “Heterocyclic compound as a protein kinase inhibitor” (HK inno.N Corporation, priority 2017, dated 2022)

Molecular target: JAK1 (Homo sapiens (Human), UniProt P23458)
Assay: Analysis of JAK1 activity inhibition ability (ADP-Glo Kinase Assay)
Type: biochemical
Conditions: JAK1 enzyme, ADP-Glo luminescence, ATP 250 uM, IRS-itide substrate, 30° C. 40 minutes; read-out: IC50
Summary of the method: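 ADP-Glo luminescence read-out of ADP production, with IC50 taken as the concentration halving JAK1 activity relative to control. Enzyme was incubated 40 min at 30 °C with compound, IRS-itide (40 ng/mL) and ATP (250 uM), concentrations as prepared in pH 7.5 Tris-HCl/MgCl2/BSA/DTT buffer.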

Chain of JAK1 (P23458 whole entry): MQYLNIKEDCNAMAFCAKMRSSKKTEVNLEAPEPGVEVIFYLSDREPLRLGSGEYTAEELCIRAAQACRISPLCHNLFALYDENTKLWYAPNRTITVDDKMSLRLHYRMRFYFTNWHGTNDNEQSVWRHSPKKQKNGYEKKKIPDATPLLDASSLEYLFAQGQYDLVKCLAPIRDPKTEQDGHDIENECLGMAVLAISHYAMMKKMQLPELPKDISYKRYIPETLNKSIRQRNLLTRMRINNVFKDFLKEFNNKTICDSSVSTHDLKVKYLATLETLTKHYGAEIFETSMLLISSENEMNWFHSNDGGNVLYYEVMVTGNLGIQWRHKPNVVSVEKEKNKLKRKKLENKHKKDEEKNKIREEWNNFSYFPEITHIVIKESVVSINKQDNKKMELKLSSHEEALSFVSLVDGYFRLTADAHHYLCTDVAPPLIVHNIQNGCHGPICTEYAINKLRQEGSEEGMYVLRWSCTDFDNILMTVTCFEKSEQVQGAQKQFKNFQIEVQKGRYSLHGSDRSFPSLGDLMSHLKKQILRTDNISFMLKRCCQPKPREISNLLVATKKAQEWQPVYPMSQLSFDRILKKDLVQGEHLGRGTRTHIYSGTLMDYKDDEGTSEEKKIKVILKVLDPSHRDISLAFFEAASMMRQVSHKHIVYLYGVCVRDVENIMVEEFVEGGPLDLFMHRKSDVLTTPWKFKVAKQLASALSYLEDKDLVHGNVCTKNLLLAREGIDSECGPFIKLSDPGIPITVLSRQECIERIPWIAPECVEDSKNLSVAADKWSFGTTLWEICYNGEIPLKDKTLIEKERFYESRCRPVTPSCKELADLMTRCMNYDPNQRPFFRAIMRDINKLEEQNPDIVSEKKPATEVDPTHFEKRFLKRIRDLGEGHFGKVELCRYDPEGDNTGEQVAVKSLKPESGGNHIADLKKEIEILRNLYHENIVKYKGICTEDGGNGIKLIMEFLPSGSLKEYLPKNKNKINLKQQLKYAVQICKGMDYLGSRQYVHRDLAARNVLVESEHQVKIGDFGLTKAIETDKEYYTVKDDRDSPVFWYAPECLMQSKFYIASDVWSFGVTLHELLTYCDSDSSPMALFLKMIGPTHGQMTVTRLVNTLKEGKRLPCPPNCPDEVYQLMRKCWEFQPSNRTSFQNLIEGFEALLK

| SMILES | IC50 |
| --- | --- |
| CC1CN(C2(CC#N)COC2)CC=C1c1cc(NC(=O)C2CC2)nc2[nH]ccc12 (stereo not drawn) [Example 613, N-(4-(1-(3-(cyanomethyl)oxetan-3-yl)-3-methyl-1,2,3,6-tetrahydropyridin-4-yl)-1H-pyrrolo[2,3-b]pyridin-6-yl)cyclopropanecarboxamide] | 20 to 200 nM |
| N#CCC1(N2CC=C(c3cc(NC(=O)C4CC4)nc4[nH]ccc34)CC2)CNC1 [Example 615, N-(4-(1-(3-(cyanomethyl)azetidin-3-yl)-1,2,3,6-tetrahydropyridin-4-yl)-1H-pyrrolo[2,3-b]pyridin-6-yl)cyclopropanecarboxamide] | 20 to 200 nM |
| CCS(=O)(=O)N1CC(CC#N)(N2CC=C(c3cc(NC(=O)C4CC4)nc4[nH]ccc34)CC2)C1 [Example 616, N-(4-(1-(3-(cyanomethyl)-1-(ethylsulfonyl)azetidin-3-yl)-1,2,3,6-tetrahydropyridin-4-yl)-1H-pyrrolo[2,3-b]pyridin-6-yl)cyclopropanecarboxamide] | < 20 nM |
| CC(C)S(=O)(=O)N1CC(CC#N)(N2CC=C(c3cc(NC(=O)C4CC4)nc4[nH]ccc34)CC2)C1 [Example 617, N-(4-(1-(3-(cyanomethyl)-1-(isopropylsulfonyl)azetidin-3-yl)-1,2,3,6-tetrahydropyridin-4-yl)-1H-pyrrolo[2,3-b]pyridin-6-yl)cyclopropanecarboxamide] | < 20 nM |
| N#CCCCS(=O)(=O)N1CC(CC#N)(N2CC=C(c3cc(NC(=O)C4CC4)nc4[nH]ccc34)CC2)C1 [Example 618, N-(4-(1-(3-(cyanomethyl)-1-((3-cyanopropyl)sulfonyl)azetidin-3-yl)-1,2,3,6-tetrahydropyridin-4-yl)-1H-pyrrolo[2,3-b]pyridin-6-yl)cyclopropanecarboxamide] | < 20 nM |
| N#CCC1(N2CC=C(c3cc(NC(=O)C4CC4)nc4[nH]ccc34)CC2)CN(S(=O)(=O)C(F)(F)F)C1 [Example 619, N-(4-(1-(3-(cyanomethyl)-1-((trifluoromethyl)sulfonyl)azetidin-3-yl)-1,2,3,6-tetrahydropyridin-4-yl)-1H-pyrrolo[2,3-b]pyridin-6-yl)cyclopropanecarboxamide] | < 20 nM |
| N#CCC1(N2CC=C(c3cc(NC(=O)C4CC4)nc4[nH]ccc34)CC2)CN(C2CCNCC2)C1 [Example 620, N-(4-(1-(3-(cyanomethyl)-1-(piperidin-4-yl)azetidin-3-yl)-1,2,3,6-tetrahydropyridin-4-yl)-1H-pyrrolo[2,3-b]pyridin-6-yl)cyclopropanecarboxamide] | > 200 nM |
| N#CCC1(N2CC=C(c3cc(NC(=O)C4CC4)nc4[nH]ccc34)CC2)CN(C2CCN(C(=O)c3nc(C(F)(F)F)cs3)CC2)C1 [Example 621, N-(4-(1-(3-(cyanomethyl)-1-(1-(4-(trifluoromethyl)thiazole-2-carbonyl)piperidin-4-yl)azetidin-3-yl)-1,2,3,6-tetrahydropyridin-4-yl)-1H-pyrrolo[2,3-b]pyridin-6-yl)cyclopropanecarboxamide] | 20 to 200 nM |
| N#CCC(=O)N1CCC(N2CC(CC#N)(N3CC=C(c4cc(NC(=O)C5CC5)nc5[nH]ccc45)CC3)C2)CC1 [Example 622, N-(4-(1-(1-(1-(2-cyanoacetyl)piperidin-4-yl)-3-(cyanomethyl)azetidin-3-yl)-1,2,3,6-tetrahydropyridin-4-yl)-1H-pyrrolo[2,3-b]pyridin-6-yl)cyclopropanecarboxamide] | 20 to 200 nM |
| CCCS(=O)(=O)Oc1ccc(-c2cc(NC(=O)C3CC3)nc3[nH]ccc23)cc1 [Example 631, 4-(6-(cyclopropanecarboxamido)-1H-pyrrolo[2,3-b]pyridin-4-yl)phenyl propane-1-sulfonate] | 20 to 200 nM |
| O=C(Nc1cc(-c2ccc(OS(=O)(=O)C3CCCCC3)cc2)c2cc[nH]c2n1)C1CC1 [Example 634, 4-(6-(cyclopropanecarboxamido)-1H-pyrrolo[2,3-b]pyridin-4-yl)phenyl cyclohexanesulfonate] | > 200 nM |
| O=C(Nc1cc(-c2ccc(OS(=O)(=O)CCCF)cc2)c2cc[nH]c2n1)C1CC1 [Example 635, 4-(6-(cyclopropanecarboxamido)-1H-pyrrolo[2,3-b]pyridin-4-yl)phenyl 3-fluoropropane-1-sulfonate] | 20 to 200 nM |
| O=C(Nc1cc(-c2ccc(OS(=O)(=O)CC3CCCCC3)cc2)c2cc[nH]c2n1)C1CC1 [Example 637, 4-(6-(cyclopropanecarboxamido)-1H-pyrrolo[2,3-b]pyridin-4-yl)phenyl cyclohexylmethanesulfonate] | > 200 nM |
| O=C(Nc1cc(-c2ccc(OCCN3CCOCC3)cc2)c2cc[nH]c2n1)C1CC1 [Example 642, N-(4-(4-(2-morpholinoethoxy)phenyl)-1H-pyrrolo[2,3-b]pyridin-6-yl)cyclopropanecarboxamide] | 20 to 200 nM |

Now from value to compound:

| IC50 | SMILES |
| --- | --- |
| > 200 nM | CC(C)(C)OC(=O)N1CC(CC#N)(N2CC=C(c3cc(NC(=O)C4CC4)nc4[nH]ccc34)CC2)C1 [Example 614, tert-butyl 3-(cyanomethyl)-3-(4-(6-(cyclopropanecarboxamido)-1H-pyrrolo[2,3-b]pyridin-4-yl)-3,6-dihydropyridin-1 (2H)-yl)azetidine-1-carboxylate] |
| 20 to 200 nM | N#CCC1(N2CC=C(c3cc(NC(=O)C4CC4)nc4[nH]ccc34)CC2)CN(S(=O)(=O)c2ccc(F)cc2)C1 [Example 623, N-(4-(1-(3-(cyanomethyl)-1-((4-fluorophenyl)sulfonyl)azetidin-3-yl)-1,2,3,6-tetrahydropyridin-4-yl)-1H-pyrrolo[2,3-b]pyridin-6-yl)cyclopropanecarboxamide] |
| 20 to 200 nM | N#CCC1(N2CC=C(c3cc(NC(=O)C4CC4)nc4[nH]ccc34)CC2)CN(C(=O)NCC(F)(F)F)C1 [Example 624, 3-(cyanomethyl)-3-(4-(6-(cyclopropanecarboxamido)-1H-pyrrolo[2,3-b]pyridin-4-yl)-3,6-dihydropyridin-1 (2H)-yl)-N-(2,2,2-trifluoroethyl)azetidine-1-carboxamide] |
| 20 to 200 nM | N#CCC1(N2CC=C(c3cc(NC(=O)C4CC4)nc4[nH]ccc34)CC2)CN(C(=O)CC(F)(F)F)C1 [Example 625, N-(4-(1-(3-(cyanomethyl)-1-(3,3,3-trifluoropropanoyl)azetidin-3-yl)-1,2,3,6-tetrahydropyridin-4-yl)-1H-pyrrolo[2,3-b]pyridin-6-yl)cyclopropanecarboxamide] |
| < 20 nM | CCS(=O)(=O)N1CC(CC#N)(N2CC=C(c3cc(NC(=O)C4CC4)nc4[nH]ccc34)C(C)C2)C1 (stereo not drawn) [Example 626, N-(4-(1-(3-(cyanomethyl)-1-(ethylsulfonyl)azetidin-3-yl)-3-methyl-1,2,3,6-tetrahydropyridin-4-yl)-1H-pyrrolo[2,3-b]pyridin-6-yl)cyclopropanecarboxamide] |
| < 20 nM | CCS(=O)(=O)N1CC(CC#N)(N2CC=C(c3cc(NC(=O)C4CC4)nc4[nH]ccc34)[C@H](C)C2)C1 [Example 627, (S)—N-(4-(1-(3-(cyanomethyl)-1-(ethylsulfonyl)azetidin-3-yl)-3-methyl-1,2,3,6-tetrahydropyridin-4-yl)-1H-pyrrolo[2,3-b]pyridin-6-yl)cyclopropanecarboxamide] |
| < 20 nM | C[C@@H]1CN(C2(CC#N)CN(S(=O)(=O)C(F)(F)F)C2)CC=C1c1cc(NC(=O)C2CC2)nc2[nH]ccc12 [Example 628, (S)—N-(4-(1-(3-(cyanomethyl)-1-((trifluoromethyl)sulfonyl)azetidin-3-yl)-3-methyl-1,2,3,6-tetrahydropyridin-4-yl)-1H-pyrrolo[2,3-b]pyridin-6-yl)cyclopropanecarboxamide] |
| 20 to 200 nM | CCS(=O)(=O)Oc1ccc(-c2cc(NC(=O)C3CC3)nc3[nH]ccc23)cc1 [Example 629, 4-(6-(cyclopropanecarboxamido)-1H-pyrrolo[2,3-b]pyridin-4-yl)phenyl ethanesulfonate] |
| > 200 nM | O=C(Nc1cc(-c2ccc(OS(=O)(=O)c3ccc(F)cc3)cc2)c2cc[nH]c2n1)C1CC1 [Example 630, 4-(6-(cyclopropanecarboxamido)-1H-pyrrolo[2,3-b]pyridin-4-yl)phenyl 4-fluorobenzenesulfonate] |
| 20 to 200 nM | CCCCS(=O)(=O)Oc1ccc(-c2cc(NC(=O)C3CC3)nc3[nH]ccc23)cc1 [Example 632, 4-(6-(cyclopropanecarboxamido)-1H-pyrrolo[2,3-b]pyridin-4-yl)phenyl butane-1-sulfonate] |
| 20 to 200 nM | CC(C)S(=O)(=O)Oc1ccc(-c2cc(NC(=O)C3CC3)nc3[nH]ccc23)cc1 [Example 633, 4-(6-(cyclopropanecarboxamido)-1H-pyrrolo[2,3-b]pyridin-4-yl)phenyl propane-2-sulfonate] |
| < 20 nM | C=CCS(=O)(=O)Oc1ccc(-c2cc(NC(=O)C3CC3)nc3[nH]ccc23)cc1 [Example 636, 4-(6-(cyclopropanecarboxamido)-1H-pyrrolo[2,3-b]pyridin-4-yl)phenyl prop-2-ene-1-sulfonate] |
| 20 to 200 nM | O=C(Nc1cc(-c2ccc(OS(=O)(=O)CC3CCOC3)cc2)c2cc[nH]c2n1)C1CC1 (stereo not drawn) [Example 638, 4-(6-(cyclopropanecarboxamido)-1H-pyrrolo[2,3-b]pyridin-4-yl)phenyl (tetrahydrofuran-3-yl)methanesulfonate] |
| 20 to 200 nM | N#CCCCS(=O)(=O)Oc1ccc(-c2cc(NC(=O)C3CC3)nc3[nH]ccc23)cc1 [Example 639, 4-(6-(cyclopropanecarboxamido)-1H-pyrrolo[2,3-b]pyridin-4-yl)phenyl 3-cyanopropane-1-sulfonate] |
| > 200 nM | N#CCCCn1ccc2c(-c3ccc(OS(=O)(=O)CCCC#N)cc3)cc(NC(=O)C3CC3)nc21 [Example 640, 4-(1-(3-cyanopropyl)-6-(cyclopropanecarboxamido)-1H-pyrrolo[2,3-b]pyridin-4-yl)phenyl 3-cyanopropane-1-sulfonate] |
| > 200 nM | O=C(Nc1cc(-c2ccc(OCc3ccc(F)cc3)cc2)c2cc[nH]c2n1)C1CC1 [Example 641, N-(4-(4-((4-fluorobenzyl)oxy)phenyl)-1H-pyrrolo[2,3-b]pyridin-6-yl)cyclopropanecarboxamide] |
